Measured values: US9255295B2, “Method for evaluating the sensitizing potential of a test compound” (IMMUNOSEARCH, priority 2010, dated 2016)

Tests used:
[1] = system: genes specific for sensitization (BRAK, CTSS, DAPK2, FABP4, HSP27, IL18, HSP90, IL1R2, TPSAB1, CXCR1, DEFB1, DHFR, EHF, IVL, KRT4, MELANA, NGAL, PDZK1IP1, PI3 …); test: Expression of the other (non-ARE) sensitization-specific genes in EPISKIN reconstructed skin (quantitative RT-PCR); format: cell-based, human
[2] = official classification: non-sensitizer, irritant, or sensitizing Extreme/Strong/Moderate/Weak; cited from earlier work

In the case of `Oc1ccc(O)cc1` [Hydroquinone], the “BRAK expression compared to control” value ([1]; 10%) is reported as 0.8, the “BRAK grade (NUMBER OF GENES)” value ([1]; 10%) is reported as 0 (if this expression is lower, the grade is 0) and the “CTSS expression compared to control” value ([1]; 10%) is reported as 0.8. The “CTSS grade (NUMBER OF GENES)” value ([1]; 10%) was 0 (if this expression is lower, the grade is 0), the “CXCR1 expression compared to control” value ([1]; 10%) was 2.2 and the “CXCR1 grade (NUMBER OF GENES)” value ([1]; 10%) was 1 (If the expression is greater than 1.3 compared to the control, a grade of 11s given). The “DAPK2 expression compared to control” value ([1]; 10%) was 1.2, the “DAPK2 grade (NUMBER OF GENES)” value ([1]; 10%) was 0 (if this expression is lower, the grade is 0) and the “DEFB1 expression compared to control” value ([1]; 10%) was 1.5. The “DEFB1 grade (NUMBER OF GENES)” value ([1]; 10%) was 1 (If the expression is greater than 1.3 compared to the control, a grade of 11s given), the “DHFR expression compared to control” value ([1]; 10%) was 0.7 and the “DHFR grade (NUMBER OF GENES)” value ([1]; 10%) was 0 (if this expression is lower, the grade is 0). The “EHF expression compared to control” value ([1]; 10%) was 1.2, the “EHF grade (NUMBER OF GENES)” value ([1]; 10%) was 0 (if this expression is lower, the grade is 0) and the “FABP4 expression compared to control” value ([1]; 10%) was 1.2. For the same molecule, the “FABP4 grade (NUMBER OF GENES)” value ([1]; 10%) was 0 (if this expression is lower, the grade is 0), the “HSP27 expression compared to control” value ([1]; 10%) was 1.0 and the “HSP27 grade (NUMBER OF GENES)” value ([1]; 10%) was 0 (if this expression is lower, the grade is 0). The “HSP90 expression compared to control” value ([1]; 10%) was 1.2, the “HSP90 grade (NUMBER OF GENES)” value ([1]; 10%) was 0 (if this expression is lower, the grade is 0) and the “IL18 expression compared to control” value ([1]; 10%) was 0.9. The “IL18 grade (NUMBER OF GENES)” value ([1]; 10%) was 0 (if this expression is lower, the grade is 0), the “IVL expression compared to control” value ([1]; 10%) was 1.8 and the “IVL grade (NUMBER OF GENES)” value ([1]; 10%) was 1 (If the expression is greater than 1.3 compared to the control, a grade of 11s given). For the same molecule, the “KRT4 expression compared to control” value ([1]; 10%) was 1.2, the “KRT4 grade (NUMBER OF GENES)” value ([1]; 10%) was 0 (if this expression is lower, the grade is 0) and the “MELANA expression compared to control” value ([1]; 10%) was 0.9. For the same molecule, the “MELANA grade (NUMBER OF GENES)” value ([1]; 10%) was 0 (if this expression is lower, the grade is 0), the “NGAL expression compared to control” value ([1]; 10%) was 2.0 and the “NGAL grade (NUMBER OF GENES)” value ([1]; 10%) was 1 (If the expression is greater than 1.3 compared to the control, a grade of 11s given). The “P13 expression compared to control” value ([1]; 10%) was 1.4, the “P13 grade (NUMBER OF GENES)” value ([1]; 10%) was 0 (if this expression is lower, the grade is 0) and the “PDZK1iP1 expression compared to control” value ([1]; 10%) was 1.0. For the same molecule, the “PDZK1iP1 grade (NUMBER OF GENES)” value ([1]; 10%) was 0 (if this expression is lower, the grade is 0), the “SENS >1.3 (NUMBER OF GENES)” value ([1]; 10%) was 4 and the “SERPINB3 expression compared to control” value ([1]; 10%) was 1.1. The “SERPINB3 grade (NUMBER OF GENES)” value ([1]; 10%) was 0 (if this expression is lower, the grade is 0), the “TOTAL SENS (NUMBER OF GENES)” value ([1]; 10%) was 4 and the “BRAK expression compared to control” value ([1]; 50%) was 0.8. For the same molecule, the “BRAK grade (NUMBER OF GENES)” value ([1]; 50%) was 0 (if this expression is lower, the grade is 0), the “CTSS expression compared to control” value ([1]; 50%) was 1.6 and the “CTSS grade (NUMBER OF GENES)” value ([1]; 50%) was 1 (If the expression is greater than 1.3 compared to the control, a grade of 11s given). The “CXCR1 expression compared to control” value ([1]; 50%) was 2.9, the “CXCR1 grade (NUMBER OF GENES)” value ([1]; 50%) was 1 (If the expression is greater than 1.3 compared to the control, a grade of 11s given) and the “DAPK2 expression compared to control” value ([1]; 50%) was 1.0. For the same molecule, the “DAPK2 grade (NUMBER OF GENES)” value ([1]; 50%) was 0 (if this expression is lower, the grade is 0), the “DEFB1 expression compared to control” value ([1]; 50%) was 2.0 and the “DEFB1 grade (NUMBER OF GENES)” value ([1]; 50%) was 1 (If the expression is greater than 1.3 compared to the control, a grade of 11s given). For the same molecule, the “DHFR expression compared to control” value ([1]; 50%) was 1.1, the “DHFR grade (NUMBER OF GENES)” value ([1]; 50%) was 0 (if this expression is lower, the grade is 0) and the “EHF expression compared to control” value ([1]; 50%) was 1.5. The “EHF grade (NUMBER OF GENES)” value ([1]; 50%) was 1 (If the expression is greater than 1.3 compared to the control, a grade of 11s given), the “FABP4 expression compared to control” value ([1]; 50%) was 1.4 and the “FABP4 grade (NUMBER OF GENES)” value ([1]; 50%) was 1 (If the expression is greater than 1.3 compared to the control, a grade of 11s given). For the same molecule, the “HSP27 expression compared to control” value ([1]; 50%) was 1.3, the “HSP27 grade (NUMBER OF GENES)” value ([1]; 50%) was 0 (if this expression is lower, the grade is 0) and the “HSP90 expression compared to control” value ([1]; 50%) was 1.8. For the same molecule, the “HSP90 grade (NUMBER OF GENES)” value ([1]; 50%) was 1 (If the expression is greater than 1.3 compared to the control, a grade of 11s given), the “IL18 expression compared to control” value ([1]; 50%) was 0.9 and the “IL18 grade (NUMBER OF GENES)” value ([1]; 50%) was 0 (if this expression is lower, the grade is 0). The “IVL expression compared to control” value ([1]; 50%) was 2.6, the “IVL grade (NUMBER OF GENES)” value ([1]; 50%) was 1 (If the expression is greater than 1.3 compared to the control, a grade of 11s given) and the “KRT4 expression compared to control” value ([1]; 50%) was 1.1. The “KRT4 grade (NUMBER OF GENES)” value ([1]; 50%) was 0 (if this expression is lower, the grade is 0), the “MELANA expression compared to control” value ([1]; 50%) was 1.6 and the “MELANA grade (NUMBER OF GENES)” value ([1]; 50%) was 1 (If the expression is greater than 1.3 compared to the control, a grade of 11s given). For the same molecule, the “NGAL expression compared to control” value ([1]; 50%) was 1.3, the “NGAL grade (NUMBER OF GENES)” value ([1]; 50%) was 0 (if this expression is lower, the grade is 0) and the “P13 expression compared to control” value ([1]; 50%) was 1.7. The “P13 grade (NUMBER OF GENES)” value ([1]; 50%) was 1 (If the expression is greater than 1.3 compared to the control, a grade of 11s given), the “PDZK1iP1 expression compared to control” value ([1]; 50%) was 1.0 and the “PDZK1iP1 grade (NUMBER OF GENES)” value ([1]; 50%) was 0 (if this expression is lower, the grade is 0). For the same molecule, the “SENS >1.3 (NUMBER OF GENES)” value ([1]; 50%) was 11, the “SERPINB3 expression compared to control” value ([1]; 50%) was 1.1 and the “SERPINB3 grade (NUMBER OF GENES)” value ([1]; 50%) was 0 (if this expression is lower, the grade is 0). The “TOTAL SENS (NUMBER OF GENES)” value ([1]; 50%) was 11 and the Class [2] was “S”.
